Activity calls are given as the source filed them. The rule behind the calls is not given here.

One may read the IC50 as the concentration needed to halve the response being measured.

Chain of Ubiquitin carboxyl-terminal hydrolase 8 (Homo sapiens) (P40818 whole entry, looked up): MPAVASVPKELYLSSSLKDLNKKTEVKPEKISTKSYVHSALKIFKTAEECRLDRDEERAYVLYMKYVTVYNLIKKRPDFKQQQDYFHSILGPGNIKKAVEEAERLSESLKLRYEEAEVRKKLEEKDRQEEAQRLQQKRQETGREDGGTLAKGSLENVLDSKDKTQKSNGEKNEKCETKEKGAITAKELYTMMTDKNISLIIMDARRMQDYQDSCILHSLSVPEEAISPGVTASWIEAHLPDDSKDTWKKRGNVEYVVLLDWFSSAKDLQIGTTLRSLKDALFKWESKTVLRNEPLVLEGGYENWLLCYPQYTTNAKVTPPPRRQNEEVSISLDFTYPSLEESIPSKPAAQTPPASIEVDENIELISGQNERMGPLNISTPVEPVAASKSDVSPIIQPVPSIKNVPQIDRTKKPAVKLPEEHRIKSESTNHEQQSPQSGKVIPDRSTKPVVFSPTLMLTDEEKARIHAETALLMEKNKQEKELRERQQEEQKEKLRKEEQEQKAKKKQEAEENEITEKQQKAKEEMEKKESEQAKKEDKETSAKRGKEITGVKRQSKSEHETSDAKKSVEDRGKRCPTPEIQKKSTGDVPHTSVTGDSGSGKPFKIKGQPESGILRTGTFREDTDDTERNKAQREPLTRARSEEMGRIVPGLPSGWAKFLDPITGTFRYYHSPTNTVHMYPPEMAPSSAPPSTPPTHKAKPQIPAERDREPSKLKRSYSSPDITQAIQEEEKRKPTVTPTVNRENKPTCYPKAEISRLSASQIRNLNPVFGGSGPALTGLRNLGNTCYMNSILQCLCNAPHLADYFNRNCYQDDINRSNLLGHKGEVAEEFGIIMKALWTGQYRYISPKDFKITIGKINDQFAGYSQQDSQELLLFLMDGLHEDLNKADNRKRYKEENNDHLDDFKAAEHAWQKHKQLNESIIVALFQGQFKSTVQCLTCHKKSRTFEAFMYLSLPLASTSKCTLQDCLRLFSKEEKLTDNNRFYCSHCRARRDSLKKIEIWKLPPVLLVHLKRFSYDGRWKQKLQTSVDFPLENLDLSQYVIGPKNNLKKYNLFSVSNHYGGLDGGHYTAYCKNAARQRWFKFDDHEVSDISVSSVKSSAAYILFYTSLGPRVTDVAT

The experiment concerns the target Ubiquitin carboxyl-terminal hydrolase 8 (Homo sapiens) (UniProt P40818). The experiment is described as follows: Ubiquitin-specific protease 8 inhibitors, concentration-effect, biochemical, validation of initial actives (AID 1645862).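 Note: potency reflects inhibition of USP8 cleavage of a ubiquitin rhodamine substrate.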 Conditions: recombinant USP8 deubiquitinase activity assay.
As to `Cc1ccc(NC(=O)Nc2nnc(CC(=O)NCc3ccccc3)s2)c(Cl)c1`, the IC50 is > 40 µM (inactive).

For the molecule `COc1cc(NC(=O)Cn2c(=O)n(-c3ccc(CC(=O)NCc4ccco4)cc3)c(=O)c3ccccc32)cc(OC)c1`, the IC50 is > 40 µM (inactive).

On to `COCCCNC(=O)c1ccc(Cn2c(=O)c3ccccc3n(CC(=O)Nc3ccc4c(c3)OCCO4)c2=O)cc1`, for which the IC50 was > 40 µM (inactive).

For the molecule `O=c1oc2c3c(c(Cl)cc2c2c1CCCC2)OCN(Cc1ccccc1)C3`, the IC50 is > 40 µM (inactive).

As to `O=C(Nc1cccc(-c2nc3ncccc3o2)c1)c1ccc([N+](=O)[O-])cc1`, the IC50 was > 40 µM (inactive).

For `O=C(Oc1ccc2cc(Br)ccc2c1)c1ccncc1`, the IC50 was > 40 µM (inactive).

Turning to `O=C(Cn1nc2c3c4c(sc3ncn2c1=O)CCCCC4)Nc1ccc(Cl)cc1F`, the IC50 is 26.1 µM.

With `CNC(=O)c1cc2nc(N(C)C)n(-c3ccc(F)cc3)c2s1`, the IC50 is > 40 µM (inactive).

For the molecule `Cc1c(C(=O)OCC(=O)Nc2ccc3c(c2)OCO3)oc2ccc(Br)cc12`, the IC50 is > 40 µM (inactive).

Regarding `O=C(Nc1ccc(Cn2cnc(-c3nc(-c4ccccc4)no3)c2)cc1)c1ccccc1F`, the IC50 was > 40 µM (inactive).

For the molecule `Cn1c(O)c(C2=Nc3ccccc3SC(c3cccc(O)c3)C2)c(=O)[nH]c1=O` (stereo not given), the IC50 was > 40 µM (inactive).

Turning to `Cc1ccc2c(c1)c(=O)c(C(=O)c1ccccc1)cn2CC(=O)Nc1ccc2c(c1)OCO2`, the IC50 was > 40 µM (inactive).

`Cc1ccc(Cl)cc1NC(=O)c1cc(-c2ccccn2)n[nH]1`: the IC50 is > 40 µM (inactive).

In the case of `O=C(CSc1oc(-c2ccc(F)cc2)nc1S(=O)(=O)c1ccc(F)cc1)Nc1ccc(F)cc1`, the IC50 was > 40 µM (inactive).

In the case of `O=C(NCCc1nc2ccccc2n1CCOc1ccccc1Cl)C1CCCCC1`, the IC50 is > 40 µM (inactive).

With `CC(Nc1nnc(Cc2ccccc2)c(=O)[nH]1)c1ccccc1` (stereo not given), the IC50 was > 40 µM (inactive).

As for `COc1cccc(C(=O)Cn2c(=O)n(CCCC(=O)NCc3ccco3)c(=O)c3ccc(Cl)cc32)c1`, the IC50 is > 40 µM (inactive).

In the case of `CC(=O)NS(=O)(=O)c1ccc(NC(=O)/C=C/c2cn(-c3ccccc3)nc2-c2ccccc2)cc1`, the IC50 was 29.4 µM.

For the molecule `Cc1csc(NC(=O)c2c[nH]c3ccc(F)cc3c2=O)n1`, the IC50 was > 40 µM (inactive).

`COc1cccc(NC(=O)C(Sc2cccc(NC(=O)c3ccccc3F)c2)c2ccccc2)c1` (stereo not given): the IC50 is > 40 µM (inactive).

Take `Cc1ccccc1NC(=O)Nc1cccc(-c2nnc(-c3ccccc3)o2)c1`: the IC50 is > 40 µM (inactive).

`CCCCN1CC(C(=O)Nc2ccc(C(=O)Nc3ccc(C(N)=O)cc3)cc2)CC1=O` (stereo not given): the IC50 is > 40 µM (inactive).

`Cc1cccc(NC(=O)CSc2nnc(-c3n[nH]c4c3CCC4)n2N)c1C`: the IC50 was > 40 µM (inactive).

As for `O=C(COc1ccc(Cl)cc1Cl)Nc1ccccc1-c1nc2ccccc2[nH]1`, the IC50 is > 40 µM (inactive).

For the molecule `O=C(CN1CC=C(c2ccccc2)CC1)Nc1ccc(S(=O)(=O)N2CCOCC2)cc1`, the IC50 is > 40 µM (inactive).

`COc1ccc(-c2cc(C(=O)Nc3ccnn3Cc3ccccc3)no2)cc1`: the IC50 was > 40 µM (inactive).

Take `COc1ccccc1CNC(=O)Cn1cnc2c(-c3ccccc3)csc2c1=O`: the IC50 is > 40 µM (inactive).

As for `O=C(Nc1c2c(nn1-c1ccc([N+](=O)[O-])cc1)CSC2)c1c(F)cccc1F`, the IC50 is > 40 µM (inactive).

Consider `COC(=O)c1ccc2c(=O)n(CCCCCC(=O)NCCc3ccc(OC)c(OC)c3)c(=O)[nH]c2c1`, for which the IC50 is > 40 µM (inactive).

`Cc1nc(N2CCN(c3ccc(Cl)cc3)CC2)c2oc3ccccc3c2n1`: the IC50 was > 40 µM (inactive).

Take `CCc1ccc(NC(=O)C(C)OC(=O)/C=C/c2ccc(S(=O)(=O)Nc3cccc(S(N)(=O)=O)c3)cc2)cc1` (stereo not given): the IC50 is > 40 µM (inactive).

For `O=C(c1ccc(Cl)cc1)N(c1ccccn1)C1CCCCC1`, the IC50 was > 40 µM (inactive).

As for `CC1Oc2cc3c(-c4c(O)cc(O)c5c(O)c6c(cc45)OC(C)C(C)C6=O)c(O)cc(O)c3c(O)c2C(=O)C1C` (stereo not given), the IC50 was > 40 µM (inactive).

Regarding `COc1ccc(NS(=O)(=O)c2cc(NC(=O)CC(=O)c3ccc([N+](=O)[O-])cc3)ccc2C)cc1`, the IC50 is > 40 µM (inactive).

Turning to `COc1ccc(Cl)cc1NC(=O)Cn1c(=O)n(CCC(=O)NC2CCCC2)c(=O)c2ccccc21`, the IC50 is > 40 µM (inactive).

Regarding `O=C(NCCc1nc2ccccc2n1CCCOc1ccccc1Cl)C1CCCCC1`, the IC50 was > 40 µM (inactive).

Consider `CCc1ccc(CN(C)C(=O)c2ccc(NS(=O)(=O)c3ccc(F)c(F)c3)cc2)cc1`, for which the IC50 is > 40 µM (inactive).

With `O=C(NCc1ccco1)c1ccc(Cn2c(SCc3ccccc3)nc3ccncc32)cc1`, the IC50 is > 40 µM (inactive).

As to `CCCCCCCCCCCCCCCc1cc(O)cc(O)c1C(=O)O`, the IC50 was 30.9 µM.

As to `COc1cc(C2CC(=O)c3c([nH]c(C(=O)OCCOc4ccccc4)c3C)C2)cc(OC)c1OC` (stereo not given), the IC50 is > 40 µM (inactive).

`Cc1nc2c(-c3ccc(Cl)cc3)c[nH]n2c(=O)c1Cc1ccccc1`: the IC50 was > 40 µM (inactive).

For `COc1cc2cc3c(c(O)c2c(O)c1-c1c(OC)cc2cc4c(c(O)c2c1O)C(=O)OC1CC(C)OC41)C(=O)OC1CC(C)OC31` (stereo not given), the IC50 was 0.972 µM.

With `CCc1ccccc1NC(=O)Cn1c(=O)n(CC(=O)NCc2ccccc2Cl)c(=O)c2sccc21`, the IC50 was > 40 µM (inactive).

`CCc1cccc(C)c1NC(=O)Cn1nc2ccc(C(=O)NCc3ccccc3)cn2c1=O`: the IC50 is > 40 µM (inactive).

Take `COc1ccc(Cl)cc1NC(=O)COC(=O)c1cc2ccccc2oc1=O`: the IC50 was 24.2 µM.

On to `C/C=C/C=C/[C@@H]1Cc2cc(O)cc(O)c2O1`, for which the concentration for half-maximal inhibition (IC50) was 20.2 µM.

Take `O=C(NCCN1CCOCC1)c1cn2cc(Cl)ccc2n1`: the IC50 was > 40 µM (inactive).

Regarding `Cc1ccc(-c2cc(=O)n(CC(=O)Nc3ccc(C(C)C)cc3)cn2)cc1`, the IC50 was > 40 µM (inactive).

Take `Cn1c(=O)[nH]c(=O)c2c1nc(N1CCc3ccccc3C1)n2CCSc1nnnn1-c1ccccc1`: the IC50 was > 40 µM (inactive).

Regarding `COC(=O)Nc1cccn(Cc2c(Cl)cccc2Cl)c1=O`, the IC50 was > 40 µM (inactive).

For the molecule `Cc1ccc(-n2cc(C(=O)NCCCc3ccccc3)nn2)cc1`, the IC50 was > 40 µM (inactive).

In the case of `O=C(Cn1c(=O)n(CCC(=O)NC2CCCC2)c(=O)c2ccccc21)NCc1ccccc1Cl`, the IC50 is > 40 µM (inactive).

As to `O=C(CCn1c(=O)c2ccccc2n(Cc2ccc(F)cc2Cl)c1=O)NCc1ccco1`, the IC50 was > 40 µM (inactive).

On to `COc1ccc(Cl)cc1NC(=O)c1nc(-c2cn(-c3ccccc3)nn2)no1`, for which the IC50 is > 40 µM (inactive).

Take `COC(=O)c1cc2c(ccn2-c2ccc(F)cc2)n1CC(=O)NC1CCCCC1`: the IC50 is > 40 µM (inactive).

With `Cn1c(=O)c(-c2ccc(C(=O)NCc3cccc(Cl)c3)cc2)nc2cccnc21`, the IC50 was > 40 µM (inactive).

With `Cc1ccc(Cn2nnc3c(=O)[nH]c(C4CCN(S(=O)(=O)c5ccc(S(=O)(=O)NC6CCCC6)cc5)CC4)nc32)cc1`, the IC50 was > 40 µM (inactive).

Take `COc1cc2c(cc1OC)-c1cc(Nc3ccc(Br)cc3)nc(=O)n1CC2`: the IC50 is > 40 µM (inactive).

Turning to `O=C(c1cc2occc2c(Nc2ccc(F)cc2)n1)N1CCN(c2ccccc2)CC1`, the IC50 is > 40 µM (inactive).

For `CCCc1ccc(C(=O)[C@@H]2[C@@H](C(=O)c3cccs3)N3c4ccc(C)cc4C(C)=C[C@@H]3[C@@]23C(=O)Nc2ccccc23)cc1`, the IC50 is > 40 µM (inactive).

Take `O=C(CSc1nc2ccccc2[nH]1)Nc1cccc2c1OCCO2`: the IC50 was > 40 µM (inactive).

For `Cc1nnc(NC(=O)C2CC(=O)N(CCc3ccc(F)cc3)C2)s1` (stereo not given), the IC50 was > 40 µM (inactive).

Consider `Cc1ccc(-c2nc3c(c(SCC(=O)c4ccccc4)n2)COC(C)(C)C3)cc1`, for which the IC50 was > 40 µM (inactive).

Regarding `CCOC(=O)c1ccc(NC(=O)Cn2c(=O)n(-c3ccc(CC(=O)NCc4ccco4)cc3)c(=O)c3ccccc32)cc1`, the IC50 is > 40 µM (inactive).

Take `Cc1cccc(OCCn2c(CCNC(=O)C3CCCCC3)nc3ccccc32)c1`: the IC50 was > 40 µM (inactive).

On to `O=C(Cn1cnc(-c2noc(-c3cccc(F)c3)n2)c1)Nc1ccccc1`, for which the IC50 was > 40 µM (inactive).

On to `O=C(CCCCn1c(=O)[nH]c2ccccc2c1=O)Nc1cccc(Cl)c1`, for which the IC50 was > 40 µM (inactive).

In the case of `O=[N+]([O-])c1ccc2c(c1)nc1n2CCN(Cc2ccco2)C1`, the IC50 is > 40 µM (inactive).

As to `CC(=O)Nc1ccc(Cc2nc(-c3ccc4c(c3)nc(C)c(=O)n4C3CCCC3)no2)cc1`, the IC50 was > 40 µM (inactive).

`O=C(Nc1ccc(Br)cc1F)c1ccc(S(=O)(=O)N2CCCC2)cc1`: the IC50 was > 40 µM (inactive).

Turning to `Cc1ccc(Nc2nc(NCC(=O)Nc3cc(C)ccc3C)nc(Nc3ccc(C)cc3)n2)cc1`, the IC50 was > 40 µM (inactive).

Regarding `CCc1nnc(-c2ccc3ccn(CC(=O)N4CCN(c5ccccn5)CC4)c3c2)o1`, the IC50 was > 40 µM (inactive).

`Cc1ccc(NC(=O)c2nnn(CC(=O)Nc3cccc(C)c3C)c2N)cc1C`: the IC50 is > 40 µM (inactive).

Turning to `Cc1ccc(NC(=O)Cn2c(=O)n(CC(=O)NCCc3ccccc3)c(=O)c3sccc32)cc1C`, the IC50 is > 40 µM (inactive).

For the molecule `CCOc1ccc(C2SCC(=O)Nc3c2c(=O)[nH]n3C2CCCCC2)cc1` (stereo not given), the IC50 was > 40 µM (inactive).

`COc1cc(Cn2cnc3c([nH]c4ccc(Br)cc43)c2=O)cc(OC)c1`: the IC50 is > 40 µM (inactive).

On to `CCC/C=C\C#CC/C=C\CCCCCCCC(=O)O`, for which the half-maximal inhibitory concentration (IC50) was 2.48 µM.

Regarding `CCc1ccc(S(=O)(=O)c2cn(CC(=O)Nc3ccccc3)c3ccccc3c2=O)cc1`, the IC50 is > 40 µM (inactive).

As to `Cc1ccc(S(=O)(=O)N2CCC3(CC2)OC(=O)Nc2ccccc23)cc1`, the IC50 is > 40 µM (inactive).

`Cn1c(C(=O)NCc2ccccn2)cc2c(=O)[nH]c3ccccc3c21`: the IC50 was > 40 µM (inactive).

Values taken from PubChem BioAssay AID1645862 (Buhrlage Lab, Dana-Farber Cancer Institute and Novartis …, 2021).
